Results as given in ChEMBL document CHEMBL3102717, “Synthesis and biological evaluation of amino acid methyl ester conjugates of 2-cyano-3,12-dioxooleana-1,9(11)-dien-28-oic acid against the production of nitric oxide (NO)” (2014).
Activity calls are given as the source filed them. The calls are words filed in the database; no cut-off is given here.

What was measured:
[1] = system: RAW264.7; experiment: Inhibition of IFN-gamma-induced nitric oxide production in mouse RAW264.7 cells at 30 nM after 24 hrs by Griess method; type: functional, cell-based
[2] = system: RAW264.7; experiment: Antioxidant activity in mouse RAW264.7 cells assessed as inhibition of tBHP-induced ROS production at 100 nM pretreated for 18 hrs before challenge measured after 15 mins by H2DCFA-based flow cytometry; type: functional, cell-based
[3] = target: T1, Nuclear factor erythroid 2-related factor 2 (Mus musculus) (UniProt Q60795); experiment: Induction of Nrf2-mediated HO-1 expression in mouse RAW264.7 cells at 30 to 300 nM after 6 hrs by Western blot method; type: cell-based
T1 sequence (whole entry): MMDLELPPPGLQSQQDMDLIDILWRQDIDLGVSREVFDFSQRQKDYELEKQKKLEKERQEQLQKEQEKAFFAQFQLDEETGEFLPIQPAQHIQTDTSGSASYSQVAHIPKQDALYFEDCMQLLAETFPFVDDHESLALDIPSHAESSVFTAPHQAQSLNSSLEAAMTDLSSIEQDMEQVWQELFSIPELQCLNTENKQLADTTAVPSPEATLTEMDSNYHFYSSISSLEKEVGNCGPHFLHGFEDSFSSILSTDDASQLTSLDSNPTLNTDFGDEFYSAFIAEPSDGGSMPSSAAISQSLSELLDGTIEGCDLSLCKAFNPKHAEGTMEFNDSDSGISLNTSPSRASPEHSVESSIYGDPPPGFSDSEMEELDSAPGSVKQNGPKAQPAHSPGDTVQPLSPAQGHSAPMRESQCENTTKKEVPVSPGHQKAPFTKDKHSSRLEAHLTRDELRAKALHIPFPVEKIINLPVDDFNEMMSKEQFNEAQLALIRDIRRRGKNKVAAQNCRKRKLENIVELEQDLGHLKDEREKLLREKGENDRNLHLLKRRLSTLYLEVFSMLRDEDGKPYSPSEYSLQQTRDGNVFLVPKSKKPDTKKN

[4] = system: RAW264.7; experiment: Antioxidant activity in mouse RAW264.7 cells assessed as inhibition of tBHP-induced ROS production at 10 nM pretreated for 18 hrs before challenge measured after 15 mins by H2DCFA-based flow cytometry; type: functional
[5] = Antiproliferative activity against mouse PANC1343 cells assessed as viable cells at 1uM after 72 hrs by MTT assay; type: functional; conditions: PANC-1, 72 h, read-out: Activity

HO-1 expression induction [3]	Compound	inhibition [1]	inhibition [2]	inhibition at 0.01 µM [4] [%]	viability at 1 µM [5] [%]
–	COC(=O)C(Cc1ccc(O)cc1)NC(=O)[C@]12CCC(C)(C)C[C@H]1[C@H]1C(=O)C=C3[C@@]4(C)C=C(C#N)C(=O)C(C)(C)[C@@H]4CC[C@@]3(C)[C@]1(C)CC2 (some centres undefined)	inactive	–	–	–
–	COC(=O)C(Cc1cnc[nH]1)NC(=O)[C@]12CCC(C)(C)C[C@H]1[C@H]1C(=O)C=C3[C@@]4(C)C=C(C#N)C(=O)C(C)(C)[C@@H]4CC[C@@]3(C)[C@]1(C)CC2 (some centres undefined)	inactive	–	–	–
–	COC(=O)[C@]12CCC(C)(C)C[C@H]1[C@H]1C(=O)C=C3[C@@]4(C)C=C(C#N)C(=O)C(C)(C)[C@@H]4CC[C@@]3(C)[C@]1(C)CC2	–	Active	–	–
–	COC(=O)C(Cc1ccccc1)NC(=O)[C@]12CCC(C)(C)C[C@H]1[C@H]1C(=O)C=C3[C@@]4(C)C=C(C#N)C(=O)C(C)(C)[C@@H]4CC[C@@]3(C)[C@]1(C)CC2 (some centres undefined)	inactive	–	–	–
Active	CCNC(=O)[C@]12CCC(C)(C)C[C@H]1[C@H]1C(=O)C=C3[C@@]4(C)C=C(C#N)C(=O)C(C)(C)[C@@H]4CC[C@@]3(C)[C@]1(C)CC2	Active	–	–	–
Active	COC(=O)C(CO)NC(=O)[C@]12CCC(C)(C)C[C@H]1[C@H]1C(=O)C=C3[C@@]4(C)C=C(C#N)C(=O)C(C)(C)[C@@H]4CC[C@@]3(C)[C@]1(C)CC2 (some centres undefined)	Active	Active	50	< 10
–	COC(=O)C(Cc1c[nH]c2ccccc12)NC(=O)[C@]12CCC(C)(C)C[C@H]1[C@H]1C(=O)C=C3[C@@]4(C)C=C(C#N)C(=O)C(C)(C)[C@@H]4CC[C@@]3(C)[C@]1(C)CC2 (some centres undefined)	inactive	–	–	–
Active	COC(=O)C(C)NC(=O)[C@]12CCC(C)(C)C[C@H]1[C@H]1C(=O)C=C3[C@@]4(C)C=C(C#N)C(=O)C(C)(C)[C@@H]4CC[C@@]3(C)[C@]1(C)CC2 (some centres undefined)	Active	–	50	< 10
–	COC(=O)CC(NC(=O)[C@]12CCC(C)(C)C[C@H]1[C@H]1C(=O)C=C3[C@@]4(C)C=C(C#N)C(=O)C(C)(C)[C@@H]4CC[C@@]3(C)[C@]1(C)CC2)C(=O)OC (some centres undefined)	inactive	–	–	–
–	COC(=O)C(CC(C)C)NC(=O)[C@]12CCC(C)(C)C[C@H]1[C@H]1C(=O)C=C3[C@@]4(C)C=C(C#N)C(=O)C(C)(C)[C@@H]4CC[C@@]3(C)[C@]1(C)CC2 (some centres undefined)	inactive	–	–	–
Active	COC(=O)C(NC(=O)[C@]12CCC(C)(C)C[C@H]1[C@H]1C(=O)C=C3[C@@]4(C)C=C(C#N)C(=O)C(C)(C)[C@@H]4CC[C@@]3(C)[C@]1(C)CC2)C(C)C (some centres undefined)	Active	Active	50	< 10
–	COC(=O)C1CCCN1C(=O)[C@]12CCC(C)(C)C[C@H]1[C@H]1C(=O)C=C3[C@@]4(C)C=C(C#N)C(=O)C(C)(C)[C@@H]4CC[C@@]3(C)[C@]1(C)CC2 (some centres undefined)	inactive	–	–	–
